The molecules below were run against DNA topoisomerase 1 (Bos taurus) (assay: Inhibition of topoisomerase I activity was determined in vitro by using the cleavable complex assay(calf thymus)).

| SMILES | IC50 [nM] |
| --- | --- |
| CC[C@@]1(O)C(=O)OCc2c1cc1n(c2=O)Cc2c-1nc1cc3c(cc1c2CCl)OCO3 [14-chloromethyl-7-ethyl-7-hydroxy-(7S)-7,8,11,13-tetrahydro-10H-[1,3]dioxolo[4,5-g]pyrano[3',4':6,7]indolizino[1,2-b]quinoline-8,11-dione] | 15 |
| CC[C@@]1(O)C(=O)OCc2c1cc1n(c2=O)Cc2c-1nc1cc3c(cc1c2CCl)OCCO3 [15-chloromethyl-8-ethyl-8-hydroxy-(8S)-2,3,8,9,12,14-hexahydro-11H-[1,4]dioxino[2,3-g]pyrano[3',4':6,7]indolizino[1,2-b]quinoline-9,12-dione] | 11 |
| CC[C@@]1(O)C(=O)OCc2c1cc1n(c2=O)Cc2c-1nc1cc3c(cc1c2CN1CCN(C)CC1)OCCO3 [8-ethyl-8-hydroxy-15-(4-methylhexahydro-1-pyrazinylmethyl)-(8S)-2,3,8,9,12,14-hexahydro-11H-[1,4]dioxino[2,3-g]pyrano[3',4':6,7]indolizino[1,2-b]quinoline-9,12-dione with trifluoroaceticacid] | 416 |

From BindingDB's records for doi:10.1021/jm00003a001 (Glaxo Research Institute, 1995)
